Source: paper PMC12320831, “Synthesis and Biological Evaluation of New Chalcogen Semicarbazone (S, Se) and Their Azole Derivatives against Chagas Disease” (Journal of Medicinal Chemistry, 2024)
Values joined by “and” are separate entries in the source; they are usually repeats but may differ in a detail not shown here. Equal values may be shown once. Read-outs that look alike come from different tables or passages of the source.

Molecular target: T1, recombinant Cz (cruzain) (Trypanosoma cruzi, UniProt P25779)
T1 construct: Cz was expressed and purified as described in da Silva et al; made in house
Assay: biochemical
Details: for SICz: ratio between IC50 hCatL and IC50 Cz
How it was run: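 Cruzain (1 nM) was preincubated 10 min with compound in 0.1 M sodium acetate pH 5.5, 1 mM DTT, 0.01% Triton X-100, then 2.5 μM Z-FR-AMC (final) was added. Fluorescence (360/460 nm) was read for 10 min at 25 °C and normalized to DMSO.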

T1 sequence (P25779 123-337 limits assumed): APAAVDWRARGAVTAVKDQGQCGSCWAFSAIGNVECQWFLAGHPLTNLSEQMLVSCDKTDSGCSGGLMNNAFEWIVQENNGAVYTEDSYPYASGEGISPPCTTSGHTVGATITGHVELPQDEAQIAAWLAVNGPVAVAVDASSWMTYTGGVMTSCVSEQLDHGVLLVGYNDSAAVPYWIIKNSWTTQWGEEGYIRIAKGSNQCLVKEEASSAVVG

C/C(=N\Nc1nc(C)c[se]1)c1cccc([N+](=O)[O-])c1.Cl [Se2h, (E)-4-Methyl-2-(2-(1-(3-nitrophenyl)ethylidene)hydrazineyl)-1,3-selenazole Hydrochloride]
Cz inhibition (%) (10 µM): 100.09% | IC50 (IC50 Cz, single biological replicate (Figure 3), each of two biological replicates in triplicate): 3.4 nM and 14.5 nM | IC50 (mean of two experiments in triplicate (n = 6) ± SEM, read-out: IC50 Cz): 8.99 ± 5.56 nM | SICz: 148.83 | SICz (listed as Se 2h): 149 | inhibition at 10 µM (read-out: Cz inhibition (%), 10 µM): > 85%
